According to PMC6864091, “A LONELY GUY protein of Bordetella pertussis with unique features is related to oxidative stress” (Scientific Reports, 2019):

Experiments:
BP1253 (BpLOG) [1] = biological target: T1, BP1253 (BpLOG) (Bordetella pertussis, UniProt Q7VYQ7); assay: SPR (Biacore T200, steady state, amine-coupled BP1253-His); cleavage also shown by TLC; assay type: binding
T1 construct: recombinant BP1253 with C-terminal 6x His tag (BP1253-His)

BP1253 (BpLOG) [2] = biological target: T1, BP1253 (BpLOG); assay: SPR (data not shown); assay type: binding
[3] = biological target: the molecule itself; assay: SEC; analytical SEC, BEH200 column 4.6 x 300 mm, 10 mM NaH2PO4, 400 mM (NH4)2SO4 pH 6.0; samples of 0.62 mg/ml and 3 mg/ml; mass from a calibration curve of standard proteins

Row | Molecule | Kd (BP1253 (BpLOG) [1]) | Kd (BP1253 (BpLOG) [2]) | further results
1 | Nc1nc2c(ncn2[C@@H]2O[C@H](COP(=O)(O)O)[C@@H](O)[C@H]2O)c(=O)[nH]1 [GMP] | 38.6 µM |  | 
2 | Nc1ncnc2c1ncn2[C@@H]1O[C@H](COP(=O)(O)O)[C@@H](O)[C@H]1O [AMP] | 5.7 µM |  | 
3 | Cc1cn([C@H]2C[C@H](O)[C@@H](COP(=O)(O)O)O2)c(=O)[nH]c1=O [TMP] |  | 2400 µM | 
4 | O=c1ccn([C@@H]2O[C@H](COP(=O)(O)O)[C@@H](O)[C@H]2O)c(=O)[nH]1 [UMP] |  | 6100 µM | 
5 | BP1253 (enzyme, Bordetella pertussis, UniProt Q7VYQ7 1-209, looked up, also called BpLOG; BP1253-His) MSEIKTAAEKLADIGPAVSMFGSARISRESPYYETCAAISAALAGAGFAIIAGGGPGIMEAANKGAFEAGGTSVGLNISLPHEAHNNEYQTISLSFEYFYSRKATFFMHSMAYVAMPGGFGTLDELFEALTLIQTGKVPPAPIVLVGSEFWHGLVDWLGEQLLANGMIAAHDLNLFIIEDDPAKVVRKVVEFHDKQGRTDSQYAPSLPA |  |  | stoichiometry N [3]: 2
